Measured values: US20250368678A1, “19-NOR-C3,3-DISUBSTITUTED C21-AZACYCLO-S[…] AND METHOD FOR USING SAME” (SHANDONG LUYE PHARMACEUTICAL CO., LTD., priority 2022, published 2025)

Tests used:
[1] = In vitro liver microsomal stability assay, human; format: in vitro ADME
Procedure, shortened: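 Test compound at […] was incubated at 37° C with 0.5 mg/mL rat or human liver microsomes, 1 mM NADPH and 3 mM MgCl2, in triplicate, sampled 0–60 min. Remaining parent was quantified by LC-MS/MS, giving half-life and microsomal and hepatic intrinsic clearance.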

SD rats = test: Loss of righting reflex in SD rats, intragastric administration; format: in vivo; conditions: for rate of loss of righting reflex: within 4 h
Text: To determine the threshold for the loss of righting reflex in SD rats after intragastric administration of compound 41 in order to evaluate the sedative effect and therapeutic safety window of compound 41.
Male SD rats weighing 180-200 g, as experimental animals, were acclimatized for 7 days after arriving at the animal facility and were randomly divided into groups based on weight one day before experimentation. The rats were fasted overnight before experimentation but had access to water. Doses of compound 41 were designed in a 0.8-fold gradient, and the doses were set at 39 mg/kg, 31.25 mg/kg, 25 mg/kg, 20 mg/kg, and 16 mg/kg, with 10 rats in each group. Observations were made on the loss of righting reflex within 4 h of intragastrically administering the compound to the rats.

[2] = Pharmacokinetic study in SD rats (plasma and brain); format: in vivo
Experimental: Male SD rats weighing about 250 g were randomly divided into groups of 3.
The intravenous dose was 6.1 mol/kg, and the intragastric dose was 24.4 μmol/kg. Animals were fasted for 12 h before administration, with free access to water, and were fed together 3 h post-administration. Blood samples of about 0.3 mL were collected at 5 min (intravenous), 15 min, 30 min, 1 h, 2 h, 3 h, 4 h, 6 h, 8 h, 12 h, and 24 h post-administration into heparinized EP tubes and centrifuged at 13,500 rpm for 10 min to separate the plasma. Rat brain tissue samples were collected after cardiac perfusion at 30 min, 2 h, and 6 h. After pretreatment, the samples were analyzed by LC-MS/MS to determine the concentration of the test compound in the plasma and brain, and pharmacokinetic parameters were calculated.

[3] = male, rat, 6.1 umol/kg, IV 6.1 μmol/kg, plasma
[4] = male, rat, plasma, 6.1 umol/kg, IV 6.1 μmol/kg
[5] = male, rat, plasma, po, 24.4 umol/kg, IG 24.4 μmol/kg
[6] = male, rat, po, 24.4 umol/kg, IG 24.4 μmol/kg, plasma

With `C[C@@]1(O)CC[C@H]2[C@H](CC[C@@H]3[C@@H]2CC[C@]2(C)[C@@H](C(=O)Cn4cnn(-c5cc(F)nc(F)c5)c4=O)CC[C@@H]32)C1` [Compound 41] the CLint scaled at 1 µM ([1]; Human liver microsomes) was < 6.75 mL/min/kg, the half-life at 1 µM ([1]; Human liver microsomes) was > 3.1 h and the “Remaining amount % at 60 min” value ([1]; Human liver microsomes 0.5 mg/mL, NADPH) was 98.2%. For the same compound, the microsomal CLint at 1 µM ([1]; Human liver microsomes, read-out: CLint(mic)) was < 7.5 µL/min/mg, the “rate of loss of righting reflex” value (SD rats; 16 mg/kg intragastric, SD rats) was 0% and the “rate of loss of righting reflex” value (SD rats; 20 mg/kg intragastric, SD rats) was 0%. The “rate of loss of righting reflex” value (SD rats; 25 mg/kg intragastric, SD rats) was 50%, the “rate of loss of righting reflex” value (SD rats; 31.25 mg/kg intragastric, SD rats) was 90% and the “rate of loss of righting reflex” value (SD rats; 39 mg/kg intragastric, SD rats) was 100%. The “threshold for loss of righting reflex relative to effective dose for the antiepileptic convulsion effect” value (SD rats; intragastric, 20 mg/kg vs 3.5 mg/kg, rats) was 5.7 times, the “therapeutic safety window (in words)” value (SD rats; intragastric, SD rats) was “relatively wide” and the “threshold dose for the loss of righting reflex” value (SD rats; intragastrically administered, SD rats) was 20 mg/kg. The “brain penetration capability (in words)” value ([2]; IG 24.4 μmol/kg) was “strong”, the Brain concentration ([2]; IG 24.4 μmol/kg, 30 min) was 2565 ± 452 nmol/kg and the Brain concentration ([2]; IG 24.4 μmol/kg, 2 h) was 4533 ± 720 nmol/kg. The Brain concentration ([2]; IG 24.4 μmol/kg, 6 h) was 2692 ± 259 nmol/kg, the AUC(0-inf) [2, 3] was 10.1 ± 2.38 µM·h and the AUC(0-t) [2, 3] was 9.71 ± 2.26 µM·h. The C0 [2, 3] was 2.11 ± 0.537 µM, the Kp at 30 min ([2]; male, rat, brain/plasma, oral, IG 24.4 μmol/kg, 30 min, read-out: Brain-to-blood ratio) was 0.8 and the Kp at 2 h ([2]; male, rat, brain/plasma, oral, IG 24.4 μmol/kg, 2 h, read-out: Brain-to-blood ratio) was 1.2. The Kp at 6 h ([2]; male, rat, brain/plasma, oral, IG 24.4 μmol/kg, 6 h, read-out: Brain-to-blood ratio) was 1.8, the MRT last [2, 4] was 6.3 ± 0.83 h and the half-life [2, 4] was 5.17 ± 0.55 h. The bioavailability ([2]; male, rat, plasma, oral, IG 24.4 μmol/kg vs IV 6.1 μmol/kg, read-out: F (absolute bioavailability)) was 84%, the concentration at 30 min ([2]; male, rat, plasma, oral, IG 24.4 μmol/kg, 30 min) was 3.2 ± 1.16 µM and the concentration at 2 h ([2]; male, rat, plasma, oral, IG 24.4 μmol/kg, 2 h) was 3.81 ± 0.67 µM. For the same compound, the concentration at 6 h ([2]; male, rat, plasma, oral, IG 24.4 μmol/kg, 6 h) was 1.48 ± 0.261 µM, the MRT last [2, 5] was 7.61 ± 0.6 h and the Tmax [2, 5] was 1.67 ± 0.58 h. For the same compound, the half-life [2, 5] was 6.11 ± 1.44 h, the AUC(0-inf) [2, 6] was 35.1 ± 7.03 µM·h and the AUC(0-t) [2, 6] was 32.5 ± 5.2 µM·h. It also gave a Cmax [2, 6] of 3.28 ± 0.324 µM.
